Patent US20200281897A1, “INDAZOLE DERIVATIVES FOR CANCER TREATMENT” (Servicio Andaluz de Salud, priority 2016, published 2020)
Where two headings read alike, the source gives them in different places. Residues, ends and D or L forms follow the SMILES beside them. *: point of attachment. Cbz = O=C(OCc1ccccc1)*; CH2F = FC*

Assays:
Format in all cases: cell-based, human
HL60 and KG-1a = assay: Antagonists/inhibitors together with WIN-55,212-2, WST-1 viability in AML cells; settings: WIN-55,212-2 10 μM, 18 hours; for effect of inhibitor on cannabinoid-induced loss of viability: WST-1; for effect of CB2 antagonist on cannabinoid-induced apoptosis: HL60 and KG1-a
Procedure: The cell lines and primary cells were cultured in 96-well plates (5×10e5 cells per well) with the addition of the indicated concentrations of WIN 55,212-2 or PGN cannabinoids in DMSO or with the solvent only in triplicate at 18, 48, and 72 hours. Caspase inhibitor Z-VAD (OMe)-FMK or the CB2 receptor antagonist PGN-8, -37, and -70, together with the cannabinoid WIN-55,212-2, were also added. Cell viability was determined by means of the WST-1 assay [2-(4-iodophenyl)-3-(4-nitrophenyl)-5-(2,4-disulfophenyl)-2H-tetrazolium] according to the manufacturer's instructions (Dojindo Molecular Technologies). Optical densities were measured at 450 nm using a Multiskan™ Go Microplate plate reader (Thermo Fisher Scientific, Waltham, Mass., USA).

U266 and RPMI cell lines = assay: Pretreatment with antagonists/inhibitors before WIN-55, MTT viability; settings: for effect of inhibitor on WIN-55-induced apoptosis / loss of viability: WIN-55 at suboptimal concentrations, 18 hours; for effect of preincubation with CB2 antagonist on pro-apoptotic effect induced by WIN-55: 30 minutes pretreatment, then WIN-55 up to 18 hours
Procedure: (§1) The MM cell lines and primary cells were exposed to different doses of indazole compounds, and viability was evaluated at 18, 48, and 72 hours. Pretreatments with the ceramide synthesis inhibitor (FB1), pan-caspase (ZVAD-FMK), and CB antagonists (PGN-8, PGN-37, and PGN-70) were performed for 30 minutes, and then the cells were incubated with indazole compound WIN-55 up to 18 hours. Cell viability was determined using the MTT assay Cell Counting Kit-8 (Dojindo, Kumamoto, Japan) according to the manufacturer's instructions.

U266 [1] = assay: Western blot and immunofluorescence in U266 cells; settings: U266, 50 μM fumonisin B1
Procedure: The extracts for Western blot were taken after 0, 2, 6, 18, and 24 hours. The cells were lysed according to Gilbert et al., 2002. (J Immunol Methods. 2002, 271:185-201), by adding 2% ASB-14 (Calbiochem, Beeston, United Kingdom) to the isotonic lysis buffer. The protein concentration was determined by Pierce® Microplate BCA Protein Assay kit-Reducing Agent Compatible (Pierce, Rockford, Ill.). The samples were subjected to SDS/PAGE in AnykD precast gels (Bio Rad, Hercules, Calif.) and transferred to PVDF membranes using Trans-Blot® Turbo™ System (Bio-Rad). The membranes were incubated over night at 4° C. with primary antibody in 0.05% Tween 20-Tris buffered saline (TTBS) then with the suitable secondary antibody, and they were subjected to chemiluminescence detection. As a control condition, the cells were treated with DMSO (<0.15%) in RPMI 1640 medium from Gibco (Gaithersburg, Md.).
The antibodies for caspase-2, -8, -9, active caspase-3, -p-Akt (phospho T308), p-Erk (T202+Y204), -p-p38MAPK (phospho T180+Y182), -p-JNK (phospho T183+Y185), -SPT, and the CB1 and CB2 receptors were from Abcam, anti-MCL-1 and -Bcl-xL were from Santa Cruz Biotechnology, anti-PARP was from Cell Signaling Technology, anti-Bax and -Bak were from BD Biosciences. Anti-beta-tubulin was from Sigma-Aldrich. All the horseradish peroxidase (HRP)-conjugated secondary antibodies used were from Jackson ImmunoResearch and produced in a donkey to prevent the possible cross-reactivity when several tests were performed.
The cells treated for 6 hours with indazole compounds were collected and placed on a slide. Immunofluorescence staining was performed as described previously by Vielhaber et al. 2001 (Glycobiology. 2001, 11:451-7) using anti-ceramide as the primary antibody. The ceramide antibody was obtained from Sigma-Aldrich, and the Alexa-488-conjugated secondary antibody was obtained from Abcam. As a control condition, the cells were treated with DMSO (<0.15%) in RPMI 1640 medium from Gibco (Gaithersburg, Md.).

RPMI-LR5 = assay: MTT cell viability assay, myeloma cell line RPMI-LR5; settings: read-out: IC50, cell viability
Procedure: (§2) In vitro studies were carried out using six different human MM cell lines, U266, RPMI8226, MM1S, MM1R, U266-LR7, and RPMI-LR5. For ex vivo assays, human primary cells from healthy donors and MM patients were used (Table 1). Human MM cell lines U266, RPMI8226, and MM1.S were acquired from ATCC and lines U266-LR7, RPMI-LR5, and MM1.R were kindly provided by Dr. Enrique Ocio (Hospital Universitario de Salamanca, Spain). The primary cells were obtained from bone marrow (BM) aspirates or peripheral blood (PB) samples, and the peripheral blood mononuclear cells (PBMCs) were isolated by Ficoll-Hypaque centrifugation and washed twice in phosphate buffered saline (PBS) containing 1% BSA. Hematopoietic stem cells and B and T lymphocytes were isolated from healthy PB donors by positive immunomagnetic separation using human MACS CD34+, CD19+, and CD3+ microbeads, respectively. MM plasma cells were obtained from the bone marrow (BM) of patients with an infiltration of cells of more than 30% (Table 1). The MM plasma cells were identified using CD138+, and were then distinguished from the other cell populations by flow cytometry using a suitable combination of antibodies: anti-human CD64-FITC, CD34-PE, CD56-APC, CD38-APC-H7, and CD45-Pacific Blue antibodies (BD Biosciences, San Jose, Calif.). All the cell lines were cultured in RPMI-1640 supplemented with 10% fetal bovine serum (FBS) and 1% penicillin/streptomycin, as recommended by the supplier. For human primary cells, the concentration of FBS was up to 20%.
as §1

U266-LR7 = assay: MTT cell viability assay, myeloma cell line U266-LR7; settings: read-out: IC50, cell viability
Procedure: as §2, §1

MM1R = assay: MTT cell viability assay, myeloma cell line MM1R; settings: read-out: IC50, cell viability
Procedure: as §2, §1

U266 [2] = assay: MTT cell viability assay, myeloma cell line U266; settings: read-out: IC50, cell viability
Procedure: as §2, §1

[3] = system: lymphocytic T-cells (CD3+) and B-cells (CD19+); assay: Viability of T and B lymphocytes from healthy donors (MTT)
Procedure: as §2, with “The MM plasma cells were identified using CD138+, and were then distinguished from the other cell populations by flow cytometry using a suitable combination of antibodies: anti-human CD64-FITC, CD34-PE, CD56-APC, CD38-APC-H7, and CD45-Pacific Blue antibodies (BD Biosciences, San Jose, Calif.). All the cell lines were cultured in RPMI-1640 supplemented with 10% fetal bovine serum (FBS) and 1% penicillin/streptomycin, as recommended by the supplier. For human primary cells, the concentration of FBS was up to 20%.” left out
The MM cell lines and primary cells were exposed to different doses of indazole compounds, and viability was evaluated at 18, 48, and 72 hours. […] Cell viability was determined using the MTT assay Cell Counting Kit-8 (Dojindo, Kumamoto, Japan) according to the manufacturer's instructions.

myeloma cell lines = assay: MTT cell viability assay, average over all myeloma cell lines; settings: read-out: IC50 average
Procedure: as §2, §1

RPMI8226 = assay: MTT cell viability assay, myeloma cell line RPMI; settings: read-out: IC50, cell viability
Procedure: as §2, §1

MM1S = assay: MTT cell viability assay, myeloma cell line MM1S; settings: read-out: IC50, cell viability
Procedure: as §2, §1

HL60 = assay: Western blot and immunocytofluorescence in HL60 cells; settings: HL60, WIN-55,212-2 10 μM
Text: The detailed methodology for analyzing mitochondrial membrane potential (APm), Western Blot analysis, and immunocytofluorescence analysis has been described elsewhere 29

[4] = Homo sapiens, RPMI-LRS, MTT, 18 hours, doses 0-50 μM
[5] = Homo sapiens, U266-LR7, MTT, 18 hours, doses 0-50 μM
[6] = Homo sapiens, MM.1R, MM1R, MTT, 18 hours, doses 0-50 μM
[7] = Homo sapiens, U-266, U266, MTT, 18 hours, doses 0-50 μM
[8] = Homo sapiens, average over the six myeloma cell lines, MTT, 18 hours
[9] = Homo sapiens, RPMI-8226, RPMI, MTT, 18 hours, doses 0-50 μM

CCCC[C@@H](C)[C@@H](OC(=O)C[C@@H](CC(=O)O)C(=O)O)[C@H](C[C@@H](C)C[C@H](O)CCCC[C@@H](O)C[C@H](O)[C@H](C)N)OC(=O)C[C@@H](CC(=O)O)C(=O)O [FB1, Fumonisin B1]
effect of inhibitor on cannabinoid-induced loss of viability (HL60 and KG-1a): only partially prevented | effect of inhibitor on WIN-55-induced apoptosis / loss of viability (U266 and RPMI cell lines): significantly reverses the effect | effect on PARP fragmentation induced by WIN-55 (U266 [1]): considerably prevented the PARP fragmentation

c1ccc2c(COc3nn(CCN4CCCCC4)c4ccccc34)cccc2c1 [PGN6, 3-(1-naphthylmethoxy)-1-(2-piperidinoethyl)indazole]
IC50 (RPMI-LR5; [4]): 13.7 µM | IC50 (U266-LR7; [5]): 78.2 µM | IC50 (MM1R; [6]): 18.6 µM | IC50 (U266 [2]; [7]): 25.4 µM | viability of the lymphocytes [3]: did not affect the viability of the lymphocytes | IC50 (myeloma cell lines; [8]): 29.7 µM | IC50 (RPMI8226; [9]): 14.4 µM

c1ccc2c(COc3nn(CCN4CCCC4)c4ccccc34)cccc2c1 [PGN17]
IC50 (RPMI-LR5; RPMI-LRS, MTT, 18 hours, doses 0-50 μM): 21.7 µM | IC50 (U266-LR7; U266-LR7, MTT, 18 hours, doses 0-50 μM): 51 µM | IC50 (MM1R; MM1R, MTT, 18 hours, doses 0-50 μM): 20.5 µM | IC50 (MM1S; MM1S, MTT, 18 hours, doses 0-50 μM): 44.6 µM | IC50 (U266 [2]; U266, MTT, 18 hours, doses 0-50 μM): 20.7 µM | viability of the lymphocytes ([3]; healthy donors, doses with antiproliferative effect on MM cell lines): did not affect the viability of the lymphocytes | IC50 (myeloma cell lines; average over the six myeloma cell lines, MTT, 18 hours): 29.7 µM | IC50 (RPMI8226; RPMI, MTT, 18 hours, doses 0-50 μM): 19.9 µM

Nc1ccc2c(c1)c(OCc1ccc3ccccc3c1)nn2CCN1CCCCC1 [PGN34, 5-amino-3-(2-naphthylmethoxy)-1-(2-piperidinoethyl)indazole]
IC50 (RPMI-LR5; Homo sapiens, 18 h): 23.2 µM | IC50 (U266-LR7; Homo sapiens, 18 h): 17.8 µM | IC50 (MM1R; Homo sapiens, MM.1R, 18 h): 21 µM | IC50 (MM1S; Homo sapiens, MM1.S, 18 h): 17.1 µM | IC50 (U266 [2]; Homo sapiens, U-266, 18 h): 26.9 µM | IC50 (myeloma cell lines; Homo sapiens, 18 h): 20.2 µM | IC50 (RPMI8226; Homo sapiens, RPMI-8226, 18 h): 15.4 µM

Nc1ccc2c(c1)c(OCc1cccc3ccccc13)nn2CCN1CCCCC1 [PGN72, 5-amino-3-(1-naphthylmethoxy)-1-(2-piperidinoethyl)indazole]
IC50 (RPMI-LR5; [4]): 41.4 µM | IC50 (U266-LR7; [5]): 20.6 µM | IC50 (MM1R; [6]): 26.7 µM | IC50 (MM1S; Homo sapiens, MM1.S, MM1S, MTT, 18 hours, doses 0-50 μM): 24.8 µM | IC50 (U266 [2]; [7]): 21.2 µM | IC50 (myeloma cell lines; [8]): 25.7 µM | IC50 (RPMI8226; [9]): 19.6 µM

Cn1nc(OCc2cccc3ccccc23)c2cc([N+](=O)[O-])ccc21 [PGN-8, 1-methyl-3-(1-naphthylmethoxy)-5-nitroindazole]
effect of CB2 antagonist on cannabinoid-induced apoptosis (HL60 and KG-1a): significantly inhibiting cannabinoid-induced apoptosis | effect of preincubation with CB2 antagonist on pro-apoptotic effect induced by WIN-55 (U266 and RPMI cell lines): considerably inhibited

COc1ccc(COc2n[nH]c3ccc([N+](=O)[O-])cc23)cc1 [PGN-37, 3-(4-methoxybenzyloxy)-5-nitro-1H-indazole]
effect of CB2 antagonist on cannabinoid-induced apoptosis (HL60 and KG-1a): significantly inhibiting cannabinoid-induced apoptosis | effect of preincubation with CB2 antagonist on pro-apoptotic effect induced by WIN-55 (U266 and RPMI cell lines): considerably inhibited

O=[N+]([O-])c1ccc2[nH]nc(OCc3cccc4ccccc34)c2c1 [PGN-70, 3-(1-naphthylmethoxy)-5-nitro-1H-indazole]
effect of CB2 antagonist on cannabinoid-induced apoptosis (HL60 and KG-1a): significantly inhibiting cannabinoid-induced apoptosis | effect of preincubation with CB2 antagonist on pro-apoptotic effect induced by WIN-55 (U266 and RPMI cell lines): considerably inhibited

COC(=O)C[C@H](NC(=O)[C@H](C)NC(=O)[C@@H](NC(=O)OCc1ccccc1)C(C)C)C(=O)CF [Z-VAD-FMK] (Cbz-Val-Ala-Asp(OMe)-CH2F)
effect of inhibitor on cannabinoid-induced loss of viability (HL60 and KG-1a): abolished | effect of inhibitor on WIN-55-induced apoptosis / loss of viability (U266 and RPMI cell lines): prevented the apoptosis

CCCCCCC(=O)CCCCCC/C=C/C[C@@H](O)[C@H](O)[C@@](N)(CO)C(=O)O [myriocin, Myriocin]
effect on PARP fragmentation and Casp 3 cleavage induced by WIN-55,212-2 (HL60): prevented the fragmentation of PARP and the cleavage of Casp 3
